Assay results reported in article PMC12455390, “Three Is Better than One: A Multimetal Complex that Triggers Immunogenic Cell Death” (Angewandte Chemie (International Ed. in English), 2025).
Where two headings read alike, the source gives them in different places.

Columns and labels:
[1] = test system: CT26 colorectal cancer model; settings: CT26 tumors in BALB/c mice, i.p. on days 8, 10, 12 & 14, day 16, doxorubicin 2 mg/kg, mixture 5.7 + 4 + 12 mg/kg, complex 5 21 mg/kg
Procedure: The experimental protocol consisted of inoculating mice with 1.5 x 10^6 CT26 cells on day 0. When the tumors became palpable, a series of four intraperitoneal (i.p.) injections were carried out on days 8, 10, 12, & 14. On day 16 mice (n = 5) were euthanized and organs including tumors (Figure S37) were collected and analyzed for their metal content via ICP‐MS (Figure 6a). The doxorubicin dosage was based on a previous report.^[ [32] ^]
Procedures were conducted in accordance with the Guide for the Care and Use of Laboratory Animals (U.S. Public Health Service, National Institute of Health) and the protocol for this experiment was approved by the Institutional Animal Care and Use Committee (IACUC, protocol numbers AUP-2022-00101 & AUP-2024-00337) at The University of Texas at Austin. Briefly, 6-8 weeks female BALB/c mice were acclimatized for 7 days thereafter, murine colon carcinoma cells, CT26 (1.5 x 10^6 cells in 100 μL of sterile PBS) were subcutaneously injected to the right flank. The experiments were initiated once tumors became palpable on Day 8. […] The animals were monitored for the development of pain or distress symptoms with the body weight and tumor size also being closely monitored. […] On day 16, mice were euthanized, and tumor and organs (liver, kidney, spleen, heart and lungs) were collected for ICP-MS metal quantification.

[2] = test system: CT26 challenge model; assay: In vivo CT26 vaccination/challenge model; design: species or system BALB/c mice; settings: mice vaccinated with CT26 cells pretreated 24 h at IC50, challenged after 7 days
Procedure: Induction of an immunogenic response in vivo was determined using the established preclinical CT26 challenge model depicted in Figure 8a.^[ [33] ^] […] After 7 days, the mice were challenged with 5 x 10^5 naive CT26 cells injected into the left flank (challenge flank). Mice were monitored thereafter to assess the level, if any, of tumor development on the challenge (left) side. Monitoring was continued for 28 days. […] These are animals in which ICD induction was not expected. Tumor free survival was seen up to day 14 and up to day 21 in the doxorubicin and 1 + Oxa + 2 groups, respectively.
After 7 days, mice were inoculated s.c. with 5 x 10^5 naive CT26 cancer cells into the contralateral flank. Prior to all injections, the supernatant of one flask per harvest day was tested for mycoplasma contamination (MycoAlert™, Lonza, Rockland, ME), which yielded negative results on all days. Body weights and tumor measurements were checked daily, and tumor development was compared among groups.

[3] = test system: white blood cells; assay: Total and differential WBC manual count in challenge study; format: in vivo, BALB/c mice; settings: mice injected with pretreated CT26 cells
Text: To test this proposition, whole blood samples were collected from mice before vaccination (day ‐7), before challenge (day 0), and 7 days after challenge (day 7) as outlined in Figure 8a. The samples were subjected to a manual count of total white blood cell (WBC) using Tuerk staining and differential leukocytes (monocytes, lymphocytes, neutrophils, eosinophils, and basophils) using Wright staining (see Supporting Information). The results are summarized in Figure 8c as total WBC per µL (Figure 8c), differential percentages of monocytes (Figure 8d), and lymphocytes (Figure 8e) corresponding to an innate and adaptive immune response, respectively. The neutrophil, eosinophil, and basophil levels remained unchanged. […]
Blood samples were collected from all mice groups by tail vein and were analyzed for total WBC count and differential count.^9 Blood was draw on Day -7 (before vaccination), Day 0 (before rechallenge) and Day 7. Total WBC was analyzed by adding 2 µL of blood to 38 µL Tuerk solution (Sigma-Aldrich product - 93770) and was counted using a hemocytometer after 45 min under a 10x light microscope. […] 200 WBC cells were counted and classified under 1000x magnification using a Leica DMI6000b microscope.

Structure (SMILES): COc1cccc2c1C(=O)c1c(O)c3c(c(O)c1C2=O)C[C@@](O)(C(=O)CO)C[C@@H]3O[C@H]1C[C@H](N)[C@H](O)[C@H](C)O1 [Doxorubicin, doxorubicin, reference compound]
- Inhibition of Tumor Growth [1]: 40.8%
- Inhibition of Tumor Growth ([1]; listed as doxorubicin): ~40%
- tumor free survival up to day [2]: ≤ 14 days
- total WBC count ([3]; day 0, trends retained through day 7): significant reduction in total WBC count
- differential monocyte and lymphocyte percentages ([3]; days 0 and 7): transient increase in lymphocyte percentages
